Laboratory results reported in ChEMBL document CHEMBL3856276, “Design, Synthesis, and Biological Evaluation of Novel Tetrahydroprotoberberine Derivatives (THPBs) as Selective α1A-Adrenoceptor Antagonists” (J Med Chem, 2016).

Tests used:
[1] = AUC (0 to t) in rat at 10 mg/kg, iv; type: ADME, organism-based; settings: in vivo
[2] = Half life in rat at 20 mg/kg, ig via oral gavage; type: ADME, organism-based; settings: in vivo
[3] = molecular target: T1, Alpha-1A adrenergic receptor (Homo sapiens) (UniProt P35348); assay: Antagonist activity at human full-length N-terminal SNAP-tagged alpha1A adrenoceptor expressed in HEK293 cells assessed as inhibition of agonist-induced calcium mobilization at 10 uM preincubated for 10 mins followed by agonist addition by fluo-4 AM dye-based assay relative to control; type: functional, cell-based
T1 sequence (whole entry): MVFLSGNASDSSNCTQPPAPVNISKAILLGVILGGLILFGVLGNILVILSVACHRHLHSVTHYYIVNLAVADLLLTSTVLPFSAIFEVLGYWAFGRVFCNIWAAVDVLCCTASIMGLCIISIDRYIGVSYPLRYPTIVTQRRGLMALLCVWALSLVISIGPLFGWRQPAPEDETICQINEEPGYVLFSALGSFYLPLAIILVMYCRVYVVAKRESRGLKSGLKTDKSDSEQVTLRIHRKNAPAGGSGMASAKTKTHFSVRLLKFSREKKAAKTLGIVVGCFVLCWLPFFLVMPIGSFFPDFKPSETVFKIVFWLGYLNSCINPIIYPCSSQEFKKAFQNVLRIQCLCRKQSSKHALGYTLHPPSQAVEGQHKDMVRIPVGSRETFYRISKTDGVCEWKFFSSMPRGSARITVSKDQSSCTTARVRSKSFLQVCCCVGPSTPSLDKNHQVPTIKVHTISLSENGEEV

Mus musculus [4] = assay: Acute toxicity in Kunming mouse assessed as effect on fur colour at 500 mg/kg, po administered as single dose measured over 7 days; type: organism-based; settings: in vivo, 168 h
Mus musculus [5] = assay: Acute toxicity in Kunming mouse assessed as mortality at 500 mg/kg, po administered as single dose measured over 7 days; type: organism-based; settings: in vivo, 168 h
Mus musculus [6] = assay: Acute toxicity in Kunming mouse assessed as effect on body weight at 500 mg/kg, po administered as single dose measured over 7 days; type: organism-based; settings: in vivo, 168 h
[7] = AUC (0 to t) in rat at 20 mg/kg, ig via oral gavage; type: ADME, organism-based; settings: in vivo
Rattus norvegicus [8] = assay: Inhibition of micturition frequency in po dosed Sprague-Dawley rat benign prostatic hyperplasia model administered 20 mins followed by distilled watering loading measured for 2 hrs; type: functional; settings: read-out: MED
[9] = Apparent clearance in rat at 10 mg/kg, iv; type: ADME, organism-based; settings: in vivo, read-out: CL(app) (converted)
[10] = AUC (0 to infinity) in rat at 10 mg/kg, iv; type: ADME, organism-based; design: dose 10 mg/kg, time infinity, route intravenous; settings: in vivo
[11] = molecular target: Voltage-gated inwardly rectifying potassium channel KCNH2 (Homo sapiens, UniProt Q12809); assay: Inhibition of human ERG
[12] = Half life in rat at 10 mg/kg, iv; type: ADME, organism-based; settings: in vivo
Mus musculus [13] = assay: Acute toxicity in Kunming mouse assessed as effect on behavior at 500 mg/kg, po administered as single dose measured over 7 days; type: organism-based; settings: in vivo, 168 h
[14] = Oral bioavailability in rat at 20 mg/kg, ig via gavage; type: ADME, organism-based; settings: in vivo
[15] = Selectivity ratio of IC50 for alpha1B adrenoceptor in Sprague-Dawley rat aorta to IC50 for alpha1A adrenoceptor in Sprague-Dawley rat urethra
[16] = Mean residence time in rat at 20 mg/kg, ig via oral gavage; type: ADME, organism-based; settings: in vivo
[17] = AUC (0 to infinity) in rat at 20 mg/kg, ig via oral gavage; type: ADME, organism-based; settings: in vivo
[18] = Tmax in rat at 20 mg/kg, ig via oral gavage; type: ADME, organism-based; settings: in vivo
[19] = molecular target: T2, Alpha-1D adrenergic receptor (Homo sapiens, UniProt P25100)
T2 sequence (P25100 whole entry): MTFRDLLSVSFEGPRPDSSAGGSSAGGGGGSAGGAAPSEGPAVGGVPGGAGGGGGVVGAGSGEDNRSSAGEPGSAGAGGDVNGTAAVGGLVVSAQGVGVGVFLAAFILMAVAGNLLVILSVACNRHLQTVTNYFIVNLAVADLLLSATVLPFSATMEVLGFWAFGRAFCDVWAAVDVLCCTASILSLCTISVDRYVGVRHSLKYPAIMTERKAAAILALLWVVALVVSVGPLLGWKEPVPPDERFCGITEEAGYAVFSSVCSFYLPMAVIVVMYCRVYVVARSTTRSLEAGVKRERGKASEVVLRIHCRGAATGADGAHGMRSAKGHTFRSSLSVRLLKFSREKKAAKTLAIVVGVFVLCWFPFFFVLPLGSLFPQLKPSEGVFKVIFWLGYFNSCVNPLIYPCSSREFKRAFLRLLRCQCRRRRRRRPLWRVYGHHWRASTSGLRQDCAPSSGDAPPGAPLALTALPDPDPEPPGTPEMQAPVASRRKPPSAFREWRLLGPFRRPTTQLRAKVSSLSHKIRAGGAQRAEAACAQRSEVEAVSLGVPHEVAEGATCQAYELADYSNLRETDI
Description: Antagonist activity at human full-length N-terminal SNAP-tagged alpha1D adrenoceptor expressed in HEK293 cells assessed as inhibition of agonist-induced calcium mobilization preincubated for 10 mins followed by agonist addition by fluo-4 AM dye-based assay

[20] = Cmax in rat at 20 mg/kg, ig via oral gavage; type: ADME, organism-based; settings: in vivo
Homo sapiens [21] = species: Homo sapiens; assay: Selectivity ratio of IC50 for human full-length N-terminal SNAP-tagged alpha1B adrenoceptor to IC50 for human full-length N-terminal SNAP-tagged alpha1A adrenoceptor
[22] = Tmax in rat at 10 mg/kg, iv; type: ADME, organism-based; settings: in vivo
Homo sapiens [23] = species: Homo sapiens; assay: Selectivity ratio of IC50 for human full-length N-terminal SNAP-tagged alpha1D adrenoceptor to IC50 for human full-length N-terminal SNAP-tagged alpha1A adrenoceptor
Rattus norvegicus [24] = assay: Increase in voided volume in po dosed Sprague-Dawley rat benign prostatic hyperplasia model administered 20 mins followed by distilled watering loading measured for 2 hrs; type: functional; settings: read-out: MED
[25] = Cmax in rat at 10 mg/kg, iv; type: ADME, organism-based; design: dose 10 mg/kg, route intravenous; settings: in vivo
[26] = molecular target: T3, Alpha-1B adrenergic receptor (Homo sapiens, UniProt P35368)
T3 sequence (P35368 whole entry): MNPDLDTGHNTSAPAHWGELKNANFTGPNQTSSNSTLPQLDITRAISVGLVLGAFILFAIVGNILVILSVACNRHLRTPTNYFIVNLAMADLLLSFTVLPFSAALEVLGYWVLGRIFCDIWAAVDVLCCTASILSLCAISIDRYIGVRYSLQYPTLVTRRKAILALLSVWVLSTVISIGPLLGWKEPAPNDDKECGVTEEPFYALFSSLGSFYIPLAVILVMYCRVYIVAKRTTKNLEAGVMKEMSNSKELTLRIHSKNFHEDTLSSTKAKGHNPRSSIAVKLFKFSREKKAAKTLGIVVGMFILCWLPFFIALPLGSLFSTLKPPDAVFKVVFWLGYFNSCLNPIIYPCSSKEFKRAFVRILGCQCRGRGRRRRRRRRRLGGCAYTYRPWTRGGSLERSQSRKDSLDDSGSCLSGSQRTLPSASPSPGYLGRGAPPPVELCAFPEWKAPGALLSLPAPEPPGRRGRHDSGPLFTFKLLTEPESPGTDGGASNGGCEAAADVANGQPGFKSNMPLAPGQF
Description: Antagonist activity at human full-length N-terminal SNAP-tagged alpha1B adrenoceptor expressed in HEK293 cells assessed as inhibition of agonist-induced calcium mobilization preincubated for 10 mins followed by agonist addition by fluo-4 AM dye-based assay

[27] = Mean residence time in rat at 10 mg/kg, iv; type: ADME, organism-based; settings: in vivo
[28] = molecular target: T4, Alpha-1A adrenergic receptor (Homo sapiens, UniProt P35348)
T4 sequence (P35348 whole entry): T1 sequence (whole entry)
Description: Antagonist activity at human full-length N-terminal SNAP-tagged alpha1A adrenoceptor expressed in HEK293 cells assessed as inhibition of agonist-induced calcium mobilization preincubated for 10 mins followed by agonist addition by fluo-4 AM dye-based assay

Sequence of Voltage-gated inwardly rectifying potassium channel KCNH2 (Q12809 whole entry): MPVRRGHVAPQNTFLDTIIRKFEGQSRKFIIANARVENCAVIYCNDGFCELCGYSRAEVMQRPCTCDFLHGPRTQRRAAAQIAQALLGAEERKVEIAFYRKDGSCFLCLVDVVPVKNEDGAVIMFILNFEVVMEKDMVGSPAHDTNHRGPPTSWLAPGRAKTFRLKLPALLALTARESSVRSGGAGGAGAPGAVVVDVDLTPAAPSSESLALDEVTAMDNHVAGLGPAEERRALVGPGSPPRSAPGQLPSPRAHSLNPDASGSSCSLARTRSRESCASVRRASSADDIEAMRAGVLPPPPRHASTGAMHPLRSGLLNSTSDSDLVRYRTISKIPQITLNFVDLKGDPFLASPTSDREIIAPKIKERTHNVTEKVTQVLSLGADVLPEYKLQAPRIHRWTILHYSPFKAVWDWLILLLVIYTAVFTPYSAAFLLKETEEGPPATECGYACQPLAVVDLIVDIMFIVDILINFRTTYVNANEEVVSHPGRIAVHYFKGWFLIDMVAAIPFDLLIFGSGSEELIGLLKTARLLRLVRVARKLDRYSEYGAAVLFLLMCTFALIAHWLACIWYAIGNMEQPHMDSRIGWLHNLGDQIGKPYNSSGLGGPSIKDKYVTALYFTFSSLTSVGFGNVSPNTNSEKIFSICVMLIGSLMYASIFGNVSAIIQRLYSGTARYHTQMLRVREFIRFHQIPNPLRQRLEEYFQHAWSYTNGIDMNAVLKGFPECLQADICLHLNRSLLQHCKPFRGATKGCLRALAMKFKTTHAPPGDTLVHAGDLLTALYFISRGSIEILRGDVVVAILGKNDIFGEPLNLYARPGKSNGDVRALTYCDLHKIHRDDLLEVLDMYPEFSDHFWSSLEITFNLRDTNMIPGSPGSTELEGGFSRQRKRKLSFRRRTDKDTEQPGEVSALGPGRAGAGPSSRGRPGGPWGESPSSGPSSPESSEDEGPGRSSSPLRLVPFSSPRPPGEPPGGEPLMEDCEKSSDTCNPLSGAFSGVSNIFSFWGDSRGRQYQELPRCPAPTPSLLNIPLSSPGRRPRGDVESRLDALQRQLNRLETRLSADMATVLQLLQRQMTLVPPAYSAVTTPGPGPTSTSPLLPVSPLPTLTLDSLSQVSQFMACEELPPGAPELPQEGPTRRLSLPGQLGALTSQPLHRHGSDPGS

## COc1ccc2[nH]c3c(c2c1)C[C@H]1c2cc4c(cc2CCN1C3)OCO4
[1]
  AUC(0-t): 1870 ng·h/mL
[2]
  half-life: 1.18 h
[3]
  inhibition: 100%
Mus musculus [4]
  Activity: Non-Toxic
Mus musculus [5]
  Activity: Non-Toxic
Mus musculus [6]
  Activity: Non-Toxic
[7]
  AUC(0-t): 2270 ng·h/mL
Rattus norvegicus [8]
  minimal effective dose: 3 mg/kg
[9]
  clearance: 96.5 mL/min/kg
[10]
  AUC(0-inf): 1880 ng·h/mL
[11]
  IC50: 13200 nM
[12]
  half-life: 0.98 h
Mus musculus [13]
  Activity: Non-Toxic
[14]
  bioavailability: 60.9%
[15]
  Ratio IC50: >2083
[16]
  MRT: 2.52 h
[17]
  AUC(0-inf): 2280 ng·h/mL
[18]
  Tmax: 1 h
[19]
  IC50: 251 nM
[20]
  Cmax: 684 ng/mL
Homo sapiens [21]
  Ratio IC50: > 781
[22]
  Tmax: 0.25 h
Homo sapiens [23]
  Ratio IC50: 19.6
Rattus norvegicus [24]
  minimal effective dose: 3 mg/kg
[25]
  Cmax: 855 ng/mL
[26]
  IC50: > 10000 nM
[27]
  MRT: 1.79 h
[28]
  IC50: 12.8 nM
